{"source": "patent US20240401000A1", "about": "“SUSPENSION-BASED 3D CULTURE METHOD FOR ORGANOIDS” (BRIGHAM YOUNG UNIVERSITY, priority 2021, published 2024)", "key": {"[1]": {"test_system": "A549, EAhy and HFL1 triculture aggregates", "experiment": "3D triculture suspension culture with soluble ECM (self-patterning, growth, fibronectin)", "type": "cell-based, human", "conditions": "100 μg mL−1 soluble ECM; day 14", "protocol": "To calculate the seeding ratios for each cell line, literature search led us to lung alveolar cell ratios to be around 24% epithelial, 30% endothelial, and 37% interstitial. By this, we simplified the seeding ratio to be roughly 1:2:2 (A549 epithelial: EAhy endothelial: HFL1 fibroblast). For suspension-based cultures, a seeding ratio of 1.0×104 to 1.0×10^5 total cells per aggregate was used and was divided to cach of the cell line using the ratio above. 100-200 μL of mixed cell suspension in 3D media or ECM supplemented 3D media were seeded into cach well of the 96-well ULA plate. […]\nTriculture cell aggregates were grown for 14 days using either traditional force aggregation (FA) or as supplemented with 300 μg mL^−1 Matrigel®. […] Cell aggregate sections were then selected using the freeform selection tool and measured for area. […]\nWe then engineered a 3D triculture to model the lung alveolus and the morphological changes accompanying soluble ECM concentration. […] Cell seeding ratios were followed based on endogenous human lung cell composition which we determined to be roughly 1:2:2 (epithelial: interstitial: vascular) (Table S1)."}, "[2]": {"test_system": "human fluorescent lung organoid (hFLO)", "experiment": "Bleomycin-induced fibrosis in hFLO with fasudil antifibrotic trial (histochemistry, immunohistochemistry, live confocal imaging)", "type": "cell-based", "conditions": "for lumen area: bleomycin 20 μg mL−1 for 3 days from day 7, then 10 μM fasudil for 4 days, day 14; for collagen deposition (Masson staining) / pro-fibrotic expression (αSMA, fibronectin, PDGFRα; H-DAB): bleomycin 20 μg mL−1 for 3 days, then 10 μM fasudil for 4 days", "protocol": "Cell aggregates were grown as described above for 7 days, after which the cell aggregates were treated with 20 μg mL 1 bleomycin (13877, Cayman Chemical Company, MI, USA, stock solution diluted in either PBS or DMSO). Media was changed after 3 days of culture with bleomycin (i.e., at day 10). At day 10, the organoids were weaned off the bleomycin insult and then treated with either 10 μM fasudil (B3523, ApexBio, TX, USA) or with DMSO (control, vehicle used for fasudil). The cultures were kept in treatment media for 4 more days with media changing every two days. Cell aggregates and media were collected and fixed as described above.\nHistologically stained samples were imaged and processed with ImageJ software. First, images were converted to an 8-bit greyscale, after which a threshold was applied. The image was then processed five times iteratively with the dilate function to converging boundary cells. […] The “count particles” function was used to measure lumen characteristics. Data was processed in Microsoft Excel, lumen under the size of 200 μm2 were excluded in all analysis except the calculations of total lumen area and lumen percent arca.\nThe ratios of collagen to tissue in organoids were determined by analyzing images of Masson-Trichrome stained sections. These images were separated into red, blue, and green components using ImageJ using color deconvolution function. For the Masson staining, areas of the blue and red image channels were determined by thresholding and collagen deposition was determined as the ratio of blue area to red area (collagen to tissue). Intensity histograms were created using the ImageJ histogram function on the selected red area, and average pixel intensity was calculated from the histogram output in Microsoft Excel. For H-DAB, the target protein is the brown channel and the hematoxylin is the blue-purple channel.\nThere is a critical need for viable organotypic models for the human lung to model diseases including pulmonary fibrosis (PF). In order to fill this need, we induced fibrosis using bleomycin in our hFLO model. Bleomycin-induced PF is an extensively used animal-based model for fibrosis, despite significant cellular and molecular differences between mouse and human lungs. Moreover, therapeutics against PF are limited due to lack of organotypic lung models adapted for drug testing and screening. […] This therapy, however, has not yet been validated in a human lung model. Here, we grew hFLO for 7 days and induced fibrosis using 20 μg mL−1 bleomycin for 3 days, after which aggregates were treated with 10 μM fasudil, a ROCK inhibitor for 4 days to observe possible changes in fibrosis (FIG. 5A). […] In PF, there is an observed alveolar and bronchiolar epithelial cell death and fibroblast abundance. We observed that with bleomycin induction, there was a decrease in the epithelial A549 with an increase in fibroblast HFL1 population ([…])."}, "[3]": {"test_system": "secreted factors from hFLO aggregates", "experiment": "Cytokine array of media from hFLO treatment groups", "type": "cell-based, human", "conditions": "media at day 14", "protocol": "The organoid media from the three treatment groups were collected at day 14. The levels of cytokines secreted to the media were immediately evaluated using the Human Cytokine Array C1000 (AAH-CYT-1000-8, Ray Biotech, GA, USA) with minor modifications. Briefly, the membranes were blocked at room temperature for 30 minutes using the blocking buffer. The media from the organoids were transferred onto the membranes and incubated with gentle rocking overnight at 4° C. After washing, the membranes were incubated with the biotinylated antibody cocktail overnight at 4° C. After further washes, the membranes were probed with Streptavidin-CF680R (29072, Biotium, CA, USA 1:1000) for 1 hour at RT. The membranes were imaged using an Odyssey CLx imager (LI-COR, Cambridge, UK) at high resolution and a wavelength of 700 nm. The exported images of the membranes were quantified using gel analysis plugin on FIJI distribution of ImageJ (open source) under the GNU General Public License.\nTo further confirm the fibrosis in hFLO-bleomycin fibrotic model and the anti-fibrotic effects of fasudil, we collected culture media from the aggregates and performed a cytokine array using 120 common inflammatory factors."}, "[4]": {"conditions": "bleomycin 20 μg mL−1, live 3D confocal volumetric analysis"}, "[5]": {"conditions": "of 120 common inflammatory factors"}}, "data": [{"molecule": "collagen I: rat tail collagen I (Sigma-Aldrich), used as soluble ECM supplement", "values": [{"measurement": "aggregate structure (H&E)", "setting": "[1]", "value": "predominantly compact cell clusters"}]}, {"molecule": "bleomycin", "values": [{"measurement": "epithelial A549 population", "setting": "[2]; [4]", "value": "decrease"}, {"measurement": "fibroblast HFL1 population", "setting": "[2]; [4]", "value": "increase"}, {"measurement": "lumen area", "setting": "[2]", "value": "decreased lumen area"}, {"measurement": "collagen deposition (Masson staining)", "setting": "[2]", "value": "increased collagen deposition"}, {"measurement": "pro-fibrotic expression (αSMA, fibronectin, PDGFRα; H-DAB)", "setting": "[2]", "value": "increased"}, {"measurement": "secretion of pro-angiogenic factors including FGF2 and VEGFA", "setting": "[3]", "value": "increased secretion"}, {"measurement": "secretion of pro-inflammatory factors (CX3CL1, AREG, CCL3, IL4, IL2, AXL, EGF, IL6 among others)", "setting": "[3]", "value": "increase"}, {"measurement": "number of factors significantly increased (Control vs Bleomycin)", "setting": "[3]; [5]", "value": 68, "unit": "factors"}]}, {"molecule": "O=S(=O)(c1cccc2cnccc12)N1CCCNCC1", "note": "[fasudil]", "values": [{"measurement": "lumen area", "setting": "[2]", "value": "rescued"}, {"measurement": "collagen deposition (Masson staining)", "setting": "[2]", "value": "decreased intensity"}, {"measurement": "pro-fibrotic expression (αSMA, fibronectin, PDGFRα; H-DAB)", "setting": "[2]", "value": "lowered"}, {"measurement": "secretion of pro-angiogenic factors including FGF2 and VEGFA", "setting": "[3]", "value": "decreased"}, {"measurement": "secretion of pro-inflammatory factors (CX3CL1, AREG, CCL3, IL4, IL2, AXL, EGF, IL6 among others)", "setting": "[3]", "value": "significantly decreased"}, {"measurement": "number of factors significantly changed (Fasudil vs Bleomycin)", "setting": "[3]; [5]", "value": 56, "unit": "factors"}, {"measurement": "number of factors significantly changed between control and fasudil treatment", "setting": "[3]; [5]", "value": 36, "unit": "factors"}]}]}
